# Reference: publication PMC11111404, “Discovery of potent small-molecule inhibitors of lipoprotein(a) formation” (Nature, 2024)
# “And” between values parts separate entries of the source, which are not always exact repeats. Identical values can stand only once. Marks after values point to notes of the source that are not given here.
# How the values were obtained:
# [1] = test system: Lp(a); experiment: Lp(a) levels in cynomolgus monkeys; format: in vivo, cynomolgus monkey (Macaca fascicularis); set-up: key to Mean_pCFB_vs_Veh / Mean_pCFB_vs_Veh (Lp(a)): % change from pre-dose, treated group compared with vehicle; key to Mean_pCFB / Mean_pCFB (Lp(a)): % change in Lp(a) from before dosing; Lp(a): unit not given here; details: for Mean_pCFB / Mean_pCFB_vs_Veh: Lp(a); for Mean_pCFB / Mean_pCFB_vs_Veh / Lp(a) / pCFB (Lp(a) pct change from baseline): female cynomolgus monkeys
# Method: Female or male Chinese Macaca fascicularis cynomolgus monkeys (as described in the figure legends) of unspecified ages with body weight ranging from 2.0 kg to 5.0 kg were housed in cages with a standard light cycle (12-h light, 12-h dark) at room temperature (20–26 °C); the relative humidity ranged from 30% to 70%. Monkeys were given fruits, vegetables or dietary enrichment as a form of environmental enrichment, and various cage enrichment devices. Purina Lab diet 5048C was provided BID and individual monkeys were identified by cage card. The monkeys were randomized to treatment groups by body weight and baseline plasma Lp(a) concentration, as determined by a commercially available Randox assay (Randox LP2757), using a BRAT for the study. In an example cynomolgus monkey study in which 39 monkeys were prescreened for baseline Lp(a) levels, the average Lp(a) level was 350 ± 57 µg ml^−1 (range 53–1,667 µg ml^−1). Monkeys were dosed orally with vehicle (purified water) or compounds QD or BID for 14 days, at dose levels and frequencies as previously described for each compound. Plasma samples were collected on days before dosing to establish baseline Lp(a) and after the morning dose during the study. Lp(a) levels were measured by an investigator who was blinded to group allocation using the Randox assay, and were quantified relative to the calibrator series (Randox LP3404). Data were analysed in GraphPad Prism v.9.5.1. The Lp(a) percentage change from before dosing in non-human primates was analysed by repeated measures ANOVA in SAS v.9.4 (SAS). At each time point, the Lp(a) percentage change for each treated group was compared with vehicle by the Bonferroni method.
# [2] = biological target: T1, plasmin activity (Rattus norvegicus, UniProt Q01177); experiment: Rat plasma plasmin (plasminogen) activity ex vivo after oral dosing; format: in vivo; details: rats treated orally at pharmacological doses
# T1 construct: Plasma samples were collected via the abdominal aorta; from tissue; host or cells: Citrated plasma of orally dosed male Sprague Dawley rats
# T1 sequence (Q01177 20-812 limits assumed): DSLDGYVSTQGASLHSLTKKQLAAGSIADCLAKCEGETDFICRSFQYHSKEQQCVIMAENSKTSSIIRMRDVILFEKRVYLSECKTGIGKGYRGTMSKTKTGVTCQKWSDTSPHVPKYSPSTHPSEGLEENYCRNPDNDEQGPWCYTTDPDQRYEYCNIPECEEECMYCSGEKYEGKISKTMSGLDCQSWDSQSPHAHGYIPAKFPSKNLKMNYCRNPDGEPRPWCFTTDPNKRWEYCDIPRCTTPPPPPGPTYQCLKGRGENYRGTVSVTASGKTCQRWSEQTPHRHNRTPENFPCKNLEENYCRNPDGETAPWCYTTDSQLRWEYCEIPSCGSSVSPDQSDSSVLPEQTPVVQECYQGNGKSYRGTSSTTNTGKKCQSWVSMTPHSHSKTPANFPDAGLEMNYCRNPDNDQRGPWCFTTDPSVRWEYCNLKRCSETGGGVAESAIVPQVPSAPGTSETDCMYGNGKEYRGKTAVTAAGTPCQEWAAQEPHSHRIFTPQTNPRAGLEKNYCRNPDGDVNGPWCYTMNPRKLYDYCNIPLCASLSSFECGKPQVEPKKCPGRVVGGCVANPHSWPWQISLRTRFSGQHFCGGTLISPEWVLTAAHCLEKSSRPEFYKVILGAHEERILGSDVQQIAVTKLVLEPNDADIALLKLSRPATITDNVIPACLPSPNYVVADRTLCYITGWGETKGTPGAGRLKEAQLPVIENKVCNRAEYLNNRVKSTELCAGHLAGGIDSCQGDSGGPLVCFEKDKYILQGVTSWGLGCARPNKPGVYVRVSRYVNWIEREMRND
# Method: Male Sprague Dawley rats (Charles River, average body weight 310 g, aged eight to nine weeks old) were housed in cages with a standard light cycle (12-h light, 12-h dark), at room temperature (22 ± 4 °C), with a relative humidity of 30–70%. Rats were identified by numbers on the cage cards. After arrival, rats were fed on a normal diet (Harlan Teklad diet 2014) and randomized to treatment groups (n = 5 per group) by baseline plasma plasminogen concentration and activity using a BRAT. LSN3441732 and LY3473329 were administered QD orally at three dose levels (3.7, 12.3 and 37 mg kg^−1; 3.2, 10.5 and 31.6 mg kg^−1 per dose, respectively) or vehicle (10 ml kg^−1, 1% HEC, 0.25% Tween-80, Antifoam) for four days. Terminal blood was drawn under general anaesthesia 24 h after the day-4 oral dose. Plasma samples were collected via the abdominal aorta into a premeasured anticoagulant BD Vacutainer used for blood collection (2.7 ml, buffered sodium citrate). The liver was flash frozen in liquid nitrogen. To measure plasminogen activity, 100 µl plasma per well was added to a 96-well plate (Corning) and the following were added to the indicated concentrations: 7.5 mM CaCl2 and 117 mM NaCl. Wells were mixed and warmed to 37 °C. Urokinase (Millipore) was added at 125 U per well and the plate was incubated at 37 °C for 4 min. The plasminogen substrate Chromogenix S-2251 (DiaPharma) was added to a concentration of 3.3 mM. The mixture was added and the plate was sealed and placed in a prewarmed plate reader, shaken, and the absorbance read every 30 s for 2 h. The maximum slope for each curve was determined and the percentage inhibition was calculated relative to untreated controls. Plasminogen protein was measured using ELISA kits for rat (Abcam ab157740) according to the manufacturer’s instructions. Plasminogen activity (percentage) and mass (µg ml^−1) in rat were analysed by ANOVA in JMP 16.1.0. The percentage reduction of plasminogen activity and mass for each treated group was compared with vehicle by Dunnett’s method.
# [3] = oral BID, day 1, individual animal
# [4] = oral BID, day 3, individual animal
# [5] = oral BID, day 5, individual animal
# [6] = oral BID, day 9, individual animal
# [7] = oral BID, day 14, individual animal
# [8] = oral QD, day 1, individual animal
# [9] = oral QD, day 3, individual animal
# [10] = oral QD, day 5, individual animal
# [11] = oral QD, day 9, individual animal
# [12] = oral QD, day 14, individual animal
smiles,measurement,setting,value
Cl.O=C(O)[C@@H](Cc1ccccc1)[C@H]1CCNC1 [LSN3353871],Mean_pCFB,"[1]; BID, day 1",-17.16
same,Mean_pCFB_vs_Veh,"[1]; BID, day 1",1.08
same,Mean_pCFB,"[1]; BID, day 3",-35.64
same,Mean_pCFB_vs_Veh,"[1]; BID, day 3",-13.27
same,Mean_pCFB,"[1]; BID, day 5",-39.65
same,Mean_pCFB_vs_Veh,"[1]; BID, day 5",-25.29
same,Mean_pCFB,"[1]; BID, day 9",-24.57
same,Mean_pCFB_vs_Veh,"[1]; BID, day 9",-29.9
same,Mean_pCFB,"[1]; BID, day 14",-34.78
same,Mean_pCFB_vs_Veh,"[1]; BID, day 14",-34.93
same,Mean_pCFB,"[1]; QD, day 1",-15.58
same,Mean_pCFB_vs_Veh,"[1]; QD, day 1",2.65
same,Mean_pCFB,"[1]; QD, day 3",-24.41
same,Mean_pCFB_vs_Veh,"[1]; QD, day 3",-2.03
same,Mean_pCFB,"[1]; QD, day 5",-27.62
same,Mean_pCFB_vs_Veh,"[1]; QD, day 5",-13.26
same,Mean_pCFB,"[1]; QD, day 9",-15.91
same,Mean_pCFB_vs_Veh,"[1]; QD, day 9",-21.23
same,Mean_pCFB,"[1]; QD, day 14",-9.51
same,Mean_pCFB_vs_Veh,"[1]; QD, day 14",-9.65
same,decrease in Lp(a) levels,"[1]; cynomolgus monkeys, 20 mg kg^−1 BID for two weeks",up to 40%
same,"%Lp(a) max decrease (dose, mg/kg)","[1]; cynomolgus monkeys, 20 mg/kg BID, 14 days dosing",40 (20)^b %
same,Lp(a),"[1]; BID group, day -1 (before dosing), individual animal",62.7685 and 48.163 and 60.7172 and 13.635 and 18.9902 and 51.942 and 61.5505 and 31.6327
same,Lp(a),"[1]; BID group, day -14 (before dosing), individual animal",63.283 and 50.674 and 55.2892 and 13.5483 and 15.2575 and 51.2555 and 54.086 and 23.9562
same,Lp(a),"[1]; QD group, day -1 (before dosing), individual animal",64.272 and 49.5175 and 60.6415 and 25.2005
same,Lp(a),"[1]; QD group, day -14 (before dosing), individual animal",61.406 and 37.9278 and 38.7218 and 35.5823
same,Lp(a),[1]; [3],52.535 and 44.0168 and 46.6457 and 12.9142 and 11.7935 and 42.9437 and 23.7942 and 44.7918
same,pCFB (Lp(a) pct change from baseline),[1]; [3],-10.9306 and -19.5807 and -4.985 and -31.1282 and -18.9955 and -14.3923 and -20.5861 and -16.6452
same,Lp(a),[1]; [4],45.0043 and 39.4997 and 31.6748 and 8.965 and 6.9825 and 34.2685 and 20.4107 and 36.1685
same,pCFB (Lp(a) pct change from baseline),[1]; [4],-20.0709 and -45.3913 and -34.0392 and -59.2235 and -35.3595 and -26.5656 and -35.8749 and -28.5937
same,Lp(a),[1]; [5],38.5745 and 31.448 and 28.6503 and 10.7198 and 9.08 and 32.1393 and 18.0332
same,pCFB (Lp(a) pct change from baseline),[1]; [5],-38.7957 and -36.3639 and -50.6056 and -21.1294 and -46.9735 and -39.3758 and -35.1194 and -48.839
same,Lp(a),[1]; [6],44.675 and 39.068 and 37.0712 and 13.4855 and 14.776 and 41.9348 and 17.9605
same,pCFB (Lp(a) pct change from baseline),[1]; [6],-29.1163 and -20.9446 and -36.0875 and -0.7811 and -13.7109 and -20.8987 and -35.3809 and -39.6451
same,Lp(a),[1]; [7],55.7647 and 33.5363 and 40.4025 and 9.657 and 7.2775 and 34.1767 and 13.5137
same,pCFB (Lp(a) pct change from baseline),[1]; [7],-11.5208 and -32.1383 and -30.3443 and -28.9479 and -57.5008 and -35.5326 and -51.38 and -30.8982
same,Lp(a),[1]; [8],48.1358 and 37.1353 and 55.4155 and 18.3242
same,pCFB (Lp(a) pct change from baseline),[1]; [8],11.5412 and -39.7058 and -6.086 and -13.177 and -16.5026 and -22.2746 and -23.3982 and -15.0662
same,Lp(a),[1]; [9],39.5063 and 29.6812 and 40.6228 and 20.1472
same,pCFB (Lp(a) pct change from baseline),[1]; [9],-18.2339 and -33.7073 and 11.9206 and -19.0783 and -28.1629 and -38.7431 and -37.1309 and -32.1149
same,Lp(a),[1]; [10],37.3218 and 25.577 and 40.148 and 26.2523
same,pCFB (Lp(a) pct change from baseline),[1]; [10],-19.1894 and -13.6191 and -4.001 and -34.7759 and -8.718 and -58.5688 and -40.6072 and -41.5017
same,Lp(a),[1]; [11],56.5955 and 31.4135 and 43.3325 and 24.1392
same,pCFB (Lp(a) pct change from baseline),[1]; [11],-12.7796 and -20.572 and 2.106 and -9.614 and -0.2146 and -48.0895 and -9.936 and -28.1528
same,Lp(a),[1]; [12],39.3452 and 48.5785 and 37.4098 and 37.2848
same,pCFB (Lp(a) pct change from baseline),[1]; [12],-24.9526 and -29.9842 and 41.651 and -25.3919 and 24.0547 and -24.319 and -22.6937 and -14.4384
same,plasma plasmin activity measured ex vivo,[2],no inhibitory action
